The values below are quoted from earlier work in patent US20080038219A1, “Novel Composition for a Topical Skin Treatment Base and Medicated Applications Thereof” (CALGENEX CORPORATION, priority 2006, published 2008).

For this data set, the system named is mild-to-moderate acne. To be noted: versus tretinoin 0.05%, benzoyl peroxide 5%, topical erythromycin 2%.

For the compound `O=C(O)CCCCCCCC(=O)O` [azelaic acid], the “efficacy in treatment of mild-to-moderate acne” value is listed as “efficacy comparable”.
